Peptide text beside a SMILES is read from it. * marks the point of attachment. 5TAMRA = CN(C)c1ccc2c(c1)Oc1cc(N(C)C)ccc1C21OC(=O)c2cc(C(=O)*)ccc21
Tests used:
[1] = tested on: bovine BCEC monolayers co-cultured with rat astrocytes; test: Barrier integrity by transendothelial electrical resistance (TEER); type: cell-based; conditions: 3 h, bovine BBB model; for barrier integrity (TEER before and after peptide application): 100 µM peptide, 37 °C, N = 3, n = 3
Method: Transport across bovine or mouse BCEC monolayers co-cultured with rat astrocytes was carried out over 3 h at 37 °C with horizontal shaking (90 rpm). TEER was measured at room temperature using an Endohm 12 cup (World Precision Instruments, Sarasota, FL, USA) connected to a Millicell-ERS device (Millipore, Bedford, MA, USA). TEER was measured before application of the peptides and after each experiment. The bovine model had initial TEER values ranging from 771 to 1332 Ω·cm^2, whereas the mouse model had initial TEER values ranging from 136 to 217 Ω·cm^2.

[2] = tested on: blood–brain barrier; test: In vivo two-photon imaging of BBB permeation; conditions: 3 nmol peptide/g body weight via femoral artery, 1 h, mean ± SEM, N = 5; for BBB permeation: AUC of change in TAMRA fluorescence in the brain parenchyma: anesthetized C57BL/6 mice, two-photon imaging; for clearance: AUC of decreased fluorescence in the blood stream: blood vessel ROIs
Method: Animals and operational procedure: We used 12–14-week-old C57BL/6 mice (24–26 g) and performed the surgical procedures as described previously. Anesthesia was induced by intraperitoneal (i.p.) injection of xylazine (10 mg/kg body weight; ScanVet, Fredensborg, Denmark) and ketamine (60 mg/kg body weight; MSD Animal Health, København, Denmark), and maintained by supplementary i.p. injections of ketamine (30 mg/kg body weight) every 20–25 min. The trachea was surgically exposed, and a custom-made metal tube inserted into the trachea lumen for mechanical respiration (180–220 μL volume; 190–240 strokes/min) with oxygen-supplemented air (1.5–2 mL/min) using a MiniVent Type 845 ventilator (Harvard Apparatus, Holliston, MA, USA). Catheters were inserted into the femoral vein and the femoral artery. The incisions were closed with surgical staples. After cannulation, the animal was placed in a prone position. The scalp was removed and FeCl3 (0.62 M) administered to clean off the periosteum. The exposed skull was subsequently washed with saline, dried, and attached to a custom-made metal plate using a cyanoacrylate gel (Henkel’s LOCTITE®, Düsseldorf, Germany). The animal head was mounted onto the imaging stage insert and craniotomy performed using a dental drill (7000 rpm; 4 mm lateral and 1 mm posterior to bregma, Ø = 3 mm). The bone flap and dura were carefully removed, and the surface of the brain gently washed with artificial cerebrospinal fluid (120 mM NaCl, 2.8 mM KCl, 1 mM Na2HPO4, 0.876 mM MgCl2, 22 mM NaHCO3, 1.45 mM CaCl2, 2.55 mM glucose, pH 7.4, 37 °C, 5% CO2). We applied 1% type III-A agarose to the brain surface, and a Menzel glass coverslip (4 × 4 mm, 0.08-mm thick; Thermo Fischer Scientific, Bedford, MA, USA) was positioned to seal the major part of the craniotomy, leaving only an opening for the glass microelectrode used in the electrophysiological assessment. The mouse was transferred to the imaging stage. Following the insertion of the glass microelectrode, the anesthesia was switched to α-chloralose administered intravenously at a constant flow of 50 mg/kg body weight/hour. The mouse was left for 25 min for anesthesia equilibration before imaging. During all procedures, the animal was maintained at 37 °C using a YSI-451rectal thermistor probe (E-Z Systems, Palmer, PA, USA) with a TC-1000 Mouse Proportional controlling unit connected to a heating pad (08-13013; CWE Incorporated, Palmer, PA, USA). To ensure optimal animal physiology and level of anesthesia, end-tidal respiratory CO2 was measured using a Capnograph Type 340 (Harvard Apparatus, Holliston, MA, USA), and mean arterial blood pressure was monitored using a BP-1 pressure monitor (World Precision Instruments, Sarasota, FL, USA).
Imaging of BBB permeation: TAMRA-Tat, TAMRA-Tat-NR2B9c, and TAMRA-Tat-N-dimer were administered as 60 µL bolus injections via the catheter inserted into the femoral artery (3 nmol/g body weight). […] The imaging was performed using an SP5 upright laser scanning microscope equipped with a 20 × 1.0 N.A. water-immersion objective (Leica Microsystems, Wetzlar, Germany). Images were obtained in a hyperstack mode, i.e., in a series of Z-stacks in 1-min intervals. Each Z-stack underwent a reduction of dimensionality (maximum signal intensity projection along the Z-axis). TAMRA and FITC were excited with a Millennia Pro MaiTai HP Ti:Sapphire two-photon laser (Spectra Physics, Santa Clara, CA, USA) tuned to 870 nm. The signal was acquired by two multi-alkali NDD photomultipliers after 525–560 and 560–625 nm band pass filters for FITC-dx and TAMRA fluorescence, respectively. Data were exported from LAS AF software (v. 4.4, Leica Microsystems, Wetzlar, Germany) to ImageJ v. 1.48u4 (NIH).

[3] = tested on: filter-grown BCECs co-cultured with rat astrocytes; test: Cellular viability, XTT assay; type: cell-based; conditions: 100 µM peptide, 3 h, bovine BCEC/rat astrocyte co-culture, N = 3, n = 3
Method: Briefly, the XTT labelling mixture was prepared by mixing electron coupling reagent with XTT labelling reagent at a 1:50 ratio. After peptide incubation, the monolayers were washed twice with 37 °C hHBSS. We applied 300 µL and 1 mL 37 °C hHBSS to the apical and basolateral compartments, respectively, prior to the addition of 150 µL XTT labelling mixture. The filters were incubated at 37 °C with horizontal shaking (90 rpm) for 1 h. Two 100 µL samples were withdrawn from the apical compartments and the absorbance measured at 466 nm using a SPECTROstar Nano plate reader (BMG Labtech, Offenburg, Germany). The relative cell viability was calculated as follows: Relative viability (%)=Asample−ASDS/Abuffer−ASDS×100% where Asample is the absorbance of the test sample, ASDS is the absorbance of the negative control (100% dead cells), and Abuffer is the absorbance of the positive control (100% viable cells).

[4] = tested on: monocultures of primary bovine BCECs; test: Live cell peptide uptake; type: cell-based; conditions: 1 h, 37 °C, live cell imaging; 100 µM TAMRA-NR2B9c, 50 µM Tat peptides (method) / 100 µM (Figure 4 legend)
Method: BCECs were obtained from a batch of isolated capillary fragments and cultured as described in Section 2.2. Following trypsinization on day 5, the BCECs were re-suspended in differentiation medium and 90,000/cm^2 seeded on collagen- and fibronectin-coated (both 10 µg/mL in PBS) LabTek® microscope slides (Merck, Søborg, Denmark). The cells were left in the incubator (10% CO2, 37 °C) for 48 h prior to use. […] The test solutions were removed and pre-warmed media containing 300 nM Hoechst and Lysotracker® (1:20,000; Thermo Fischer Scientific, Bedford, MA, USA) applied to the cells for 10 min at 37 °C. The cells were gently washed twice in 37 °C hHBSS and immediately imaged in FluoBrite medium (Thermo Fischer Scientific, Bedford, MA, USA). Images were captured using an Olympus IX-83 fluorescent microscope (Olympus, Hamburg, Germany) equipped with a Yokogawa CSU-X spinning disc unit (Yokogawa, Tokyo, Japan) and Andor iXon Ultra 897 camera (Oxford Instruments, Abingdon, Great Britain) using cellSens software (Olympus, Hamburg, Germany).

| SMILES | barrier integrity (TEER before and after peptide application) [1] | BBB permeation: AUC of change in TAMRA fluorescence in the brain parenchyma [2] | clearance: AUC of decreased fluorescence in the blood stream [2] | cell viability compared to media-treated control cells [3] | peptide uptake into live BCECs [4] | barrier integrity (TEER) upon co-application of FITC-dextran with peptide ([1]; 1 mg/mL FITC-dextran with 100 µM peptide) |
| --- | --- | --- | --- | --- | --- | --- |
| CC[C@H](C)[C@H](NC(=O)[C@H](CO)NC(=O)[C@H](CO)NC(=O)[C@H](CC(C)C)NC(=O)[C@H](CCCCN)NC(=O)[C@H](CCCNC(=N)N)NC(=O)[C@H](CCCNC(=N)N)NC(=O)[C@H](CCCNC(=N)N)NC(=O)[C@H](CCC(N)=O)NC(=O)[C@H](CCCNC(=N)N)NC(=O)[C@H](CCCNC(=N)N)NC(=O)[C@H](CCCCN)NC(=O)[C@H](CCCCN)NC(=O)[C@H](CCCNC(=N)N)NC(=O)CNC(=O)[C@H](Cc1ccc(O)cc1)NC(=O)c1ccc2c(c1)C(=O)OC21c2ccc(N(C)C)cc2Oc2cc(N(C)C)ccc21)C(=O)N[C@@H](CCC(=O)O)C(=O)N[C@@H](CO)C(=O)N[C@@H](CC(=O)O)C(=O)N[C@H](C(=O)O)C(C)C [TAMRA-Tat-NR2B9c] (5TAMRA-YGRKKRRQRRRKLSSIESDV-OH) | significant decrease in TEER | 5.54 ± 2.95 F/F0 min | −4.97 ± 1.26 F/F0 min | slight, but non-significant, decrease | taken up into vesicular structures to a similar extent |  |
| CC[C@H](C)[C@H](NC(=O)CCOCCOCCN(CCOCCOCCC(=O)N[C@H](C(=O)N[C@@H](CCC(=O)O)C(=O)N[C@H](C(=O)N[C@@H](CC(=O)O)C(=O)N[C@H](C(=O)O)C(C)C)[C@@H](C)O)[C@@H](C)CC)C(=O)[C@H](CCCNC(=N)N)NC(=O)[C@H](CCCNC(=N)N)NC(=O)[C@H](CCCNC(=N)N)NC(=O)[C@H](CCC(N)=O)NC(=O)[C@H](CCCNC(=N)N)NC(=O)[C@H](CCCNC(=N)N)NC(=O)[C@H](CCCCN)NC(=O)[C@H](CCCCN)NC(=O)[C@H](CCCNC(=N)N)NC(=O)CNC(=O)[C@H](Cc1ccc(O)cc1)NC(=O)c1ccc2c(c1)C(=O)OC21c2ccc(N(C)C)cc2Oc2cc(N(C)C)ccc21)C(=O)N[C@@H](CCC(=O)O)C(=O)N[C@H](C(=O)N[C@@H](CC(=O)O)C(=O)N[C@H](C(=O)O)C(C)C)[C@@H](C)O [TAMRA-Tat-N-dimer] | did not affect the barrier integrity | 6.90 ± 3.90 F/F0 min | −15.02 ± 0.55 F/F0 min | slight, but non-significant, decrease | taken up into vesicular structures to a similar extent | did not affect barrier integrity |
| CN(C)c1ccc2c(c1)Oc1cc(N(C)C)ccc1C21OC(=O)c2cc(C(=O)N[C@@H](Cc3ccc(O)cc3)C(=O)NCC(=O)N[C@@H](CCCNC(=N)N)C(=O)N[C@@H](CCCCN)C(=O)N[C@@H](CCCCN)C(=O)N[C@@H](CCCNC(=N)N)C(=O)N[C@@H](CCCNC(=N)N)C(=O)N[C@@H](CCC(N)=O)C(=O)N[C@@H](CCCNC(=N)N)C(=O)N[C@@H](CCCNC(=N)N)C(=O)N[C@@H](CCCNC(=N)N)C(=O)O)ccc21 [TAMRA-Tat] | significant decrease in TEER | 32.21 ± 10.17 F/F0 min | −17.85 ± 1.71 F/F0 min | slight, but non-significant, decrease | taken up into vesicular structures to a similar extent |  |
| CC[C@H](C)[C@H](NC(=O)[C@H](CO)NC(=O)[C@H](CO)NC(=O)[C@H](CC(C)C)NC(=O)[C@H](CCCCN)NC(=O)c1ccc2c(c1)C(=O)OC21c2ccc(N(C)C)cc2Oc2cc(N(C)C)ccc21)C(=O)N[C@@H](CCC(=O)O)C(=O)N[C@@H](CO)C(=O)N[C@@H](CC(=O)O)C(=O)N[C@H](C(=O)O)C(C)C [TAMRA-NR2B9c] (5TAMRA-KLSSIESDV-OH) | did not affect the barrier integrity |  |  | did not decrease cell viability | No uptake |  |

Source: publication PMC7408072 (Pharmaceutics, 2020)
